Results reported in US11739101B2, “Bifunctional degraders of hematopoietic progenitor kinase and therapeutic uses thereof” (Nurix Therapeutics, Inc., priority 2020, dated 2023).

Target: T1, HPK1 (Homo sapiens, UniProt Q92918)
T1 construct: A HiBiT tag was introduced by CRISPR on the N terminus of HPK1 in Jurkat cells; host or cells: Jurkat (ATCC TIB-152), monoclonal CRISPR HiBiT knock-in line
Experiment: HPK1 Cellular HiBiT Degradation Assay
Assay type: cell-based
Settings: HiBiT-tagged HPK1 Jurkat cells, 24 hours, 10 uM to 0.1 nM; Dmax = 100 minus lowest % HPK1 remaining vs DMSO vehicle
Method: HiBiT HPK1 Jurkat cell lines were used to evaluate the total protein levels of HPK1 in a robust human cellular high throughput format. The level of HPK1 remaining following treatment with HPK1 CTMs is reported as Dmax (maximum degradation) achieved at 24 hours when compared to vehicle treated controls. […] These decreases were not a result of cytotoxicity measured by a parallel viability assessment (CTG). See also Table 1.
A HiBiT tag was introduced by CRISPR on the N terminus of HPK1 in Jurkat cells (ATCC® TIB-152) to allow quantitation of HPK1 protein levels in a monoclonal human cell line. Cells were plated at 1×10^6 cells/mL, 30 uL/well (3×10^4 cells/well) in complete RPMI 1640 (10% heat inactivated FBS, 1% L-glutamine) in 384-well assay plates (Corning, cat. no. 3570). HPK1 chimeric targeting molecules (CTMs) were added in an 11-point dilution series (3.16-fold) with a final assay concentration range of 10 uM to 0.1 nM. The parental Jurkat cell line, with no HiBiT insertion, was included in the assay as a background control. Cells treated with a DMSO vehicle control were used to determine the maximum signal defining 100% HPK1 in the cell. Cells were incubated for 24 hours at 37° C./5% CO2. Following incubation, 30 uL of complete Nano-Glo HiBiT Lytic Detection Reagent (Promega cat. no. N3040) was added. Cells were incubated for 10 minutes at room temperature and luminescence was read on an EnVision plate reader (Perkin Elmer, 0.1 sec per well). Parallel plates were assessed for viability using Cell Titer Glo (Promega) and read on an EnVision plate reader to ensure results were not the effect of cytotoxicity. Percent HPK1 remaining per sample was calculated as follows: […]
% HPK1 remaining values were plotted as a function of compound concentration and curves were fit using the Prism (GraphPad) equation “log(inhibitor) vs response−Variable slope (four parameters)”. Dmax values were calculated by identifying the lowest % remaining and subtracting from 100. Dmax values are provided in Table 1, wherein A>65%, 45%≤B≤65% and C<45%.

T1 sequence (Q92918 whole entry): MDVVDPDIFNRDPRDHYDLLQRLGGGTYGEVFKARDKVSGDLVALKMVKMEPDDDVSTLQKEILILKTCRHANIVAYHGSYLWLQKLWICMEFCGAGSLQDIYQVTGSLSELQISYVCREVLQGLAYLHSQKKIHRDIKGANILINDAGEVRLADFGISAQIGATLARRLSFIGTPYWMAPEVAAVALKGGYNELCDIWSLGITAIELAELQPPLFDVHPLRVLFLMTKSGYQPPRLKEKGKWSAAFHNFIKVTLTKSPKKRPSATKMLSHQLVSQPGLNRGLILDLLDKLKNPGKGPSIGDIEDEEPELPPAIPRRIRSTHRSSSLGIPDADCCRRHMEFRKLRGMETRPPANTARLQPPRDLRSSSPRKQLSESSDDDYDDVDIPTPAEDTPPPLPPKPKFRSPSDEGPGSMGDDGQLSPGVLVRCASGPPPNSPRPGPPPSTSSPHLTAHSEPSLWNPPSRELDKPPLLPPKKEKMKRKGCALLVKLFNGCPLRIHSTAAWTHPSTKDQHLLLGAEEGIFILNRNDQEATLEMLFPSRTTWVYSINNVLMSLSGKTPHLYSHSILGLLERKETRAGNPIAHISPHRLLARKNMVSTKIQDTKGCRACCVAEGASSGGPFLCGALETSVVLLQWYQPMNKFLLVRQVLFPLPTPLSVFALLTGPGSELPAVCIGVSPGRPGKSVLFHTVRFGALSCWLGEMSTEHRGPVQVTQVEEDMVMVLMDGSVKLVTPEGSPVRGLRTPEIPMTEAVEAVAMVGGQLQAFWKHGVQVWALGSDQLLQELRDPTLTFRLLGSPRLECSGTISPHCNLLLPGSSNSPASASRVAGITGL

First: Cc1cc(F)c(Nc2nc(-c3ccc4c(c3)N([C@H]3C[C@@H](N5CCCCC5)C3)C(=O)C43CCN(C(=O)[C@H]4CC[C@@H](C(=O)N5CCC(N(C)c6cccc7c6C(=O)N(C6CCC(=O)NC6=O)C7=O)CC5)CC4)CC3)cc3ncn(C(C)C)c23)cc1C(=O)NC(C)C (stereo partly drawn) [Example 62, 4-fluoro-2-methyl-5-[(6-{2-oxo-1-[(1s,3s)-3-(piperidin-1-yl)cyclobutyl]-1′-[(1S,4s)-4-(4-{[2-(2,6-dioxopiperidin-3-yl)-1,3-dioxo-2,3-dihydro-1H-isoindol-4-yl](methyl)amino}piperidine-1-carbonyl)cyclohexanecarbonyl]-1,2-dihydrospiro[indole-3,4′-piperidin]-6-yl}-3-(propan-2-yl)-3H-imidazo[4,5-c]pyridin-4-yl)amino]-N-(propan-2-yl)benzamide]
Second: Cc1cc(F)c(Nc2nc(-c3ccc4c(c3)N([C@H]3C[C@@H](N5CCCCC5)C3)C(=O)C43CCN(C(=O)[C@@H]4CCN(C(=O)[C@H]5CC[C@H](N(C)c6cccc7c6C(=O)N(C6CCC(=O)NC6=O)C7=O)CC5)C4)CC3)cc3ncn(C(C)C)c23)cc1C(=O)NC(C)C (stereo partly drawn) [Example 67, 4-fluoro-2-methyl-5-[(6-{2-oxo-1′-[(3R)-1-[(R,4R)-4-({2-[2,6-dioxopiperidin-3-yl]-1,3-dioxo-2,3-dihydro-1H-isoindol-4-yl}(Methyl)amino)cyclohexanecarbonyl]pyrrolidine-3-carbonyl]-1-[(1s,3s)-3-(piperidin-1-yl)cyclobutyl]-1,2-dihydrospiro[indole-3,4′-piperidin]-6-yl}-3-(propan-2-yl)-3H-imidazo[4,5-c]pyridin-4-yl)amino]-N-(propan-2-yl)benzamide]
The Dmax of the first is lower: 45 to 65% for the first, > 65% for the second.

Compared with `Cc1cc(F)c(Nc2nc(-c3ccc4c(c3)N([C@H]3C[C@@H](N5CCCCC5)C3)C(=O)C43CCN(C(=O)c4ccc(C(=O)N5CCC(c6cccc7c6C(=O)N([C@H]6CCC(=O)NC6=O)C7=O)CC5)cc4)CC3)cc3ncn(C(C)C)c23)cc1C(=O)NC(C)C` [Example 75, 5-[(6-{1′-[4-(4-{2-[2,6-dioxopiperidin-3-yl]-1,3-dioxo-2,3-dihydro-1H-isoindol-4-yl}piperidine-1-carbonyl)benzoyl]-2-oxo-1-[(1s,3s)-3-(piperidin-1-yl)cyclobutyl]-1,2-dihydrospiro[indole-3,4′-piperidin]-6-yl}-3-(propan-2-yl)-3H-imidazo[4,5-c]pyridin-4-yl)amino]-4-fluoro-2-methyl-N-(propan-2-yl)benzamide], `Cc1cc(F)c(Nc2nc(-c3ccc4c(c3)N([C@H]3C[C@@H](N5CCCCC5)C3)C(=O)C43CCN(C(=O)c4ccc(OC5CCN(c6ccc7c(c6)C(=O)N(C6CCC(=O)NC6=O)C7=O)CC5)cc4)CC3)cc3ncn(C(C)C)c23)cc1C(=O)NC(C)C` (some centres unmarked) [Example 64, 5-{[6-(1′-{4-[(1-{2-[2,6-dioxopiperidin-3-yl]-1,3-dioxo-2,3-dihydro-1H-isoindol-5-yl}piperidin-4-yl)oxy]benzoyl}-2-oxo-1-[(1s,3s)-3-(piperidin-1-yl)cyclobutyl]-1,2-dihydrospiro[indole-3,4′-piperidin]-6-yl)-3-(propan-2-yl)-3H-imidazo[4,5-c]pyridin-4-yl]amino}-4-fluoro-2-methyl-N-(propan-2-yl)benzamide] is higher in Dmax: < 45% for the first, > 65% for the second.

`Cc1cc(F)c(Nc2nc(-c3ccc4c(c3)N([C@H]3C[C@@H](N5CCCCC5)C3)C(=O)C43CCN(C(=O)[C@@H]4CCN(C(=O)N5CCC(Nc6cccc7c6C(=O)N(C6CCC(=O)NC6=O)C7=O)CC5)C4)CC3)cc3ncn(C(C)C)c23)cc1C(=O)NC(C)C` (stereo partly drawn) [Example 69, 5-[(6-{1′-[(3R)-1-[4-({2-[2,6-dioxopiperidin-3-yl]-1,3-dioxo-2,3-dihydro-1H-isoindol-4-yl}amino)piperidine-1-carbonyl]pyrrolidine-3-carbonyl]-2-oxo-1-[(1S,3s)-3-(piperidin-1-yl)cyclobutyl]-1,2-dihydrospiro[indole-3,4′-piperidin]-6-yl}-3-(propan-2-yl)-3H-imidazo[4,5-c]pyridin-4-yl)amino]-4-fluoro-2-methyl-N-(propan-2-yl)benzamide] and `Cc1cc(F)c(Nc2nc(-c3ccc4c(c3)N([C@H]3C[C@@H](N5CCCCC5)C3)C(=O)C43CCN(C(=O)C4CCN(C(=O)C5CCN(C(=O)CNc6cccc7c6C(=O)N(C6CCC(=O)NC6=O)C7=O)CC5)C4)CC3)cc3ncn(C(C)C)c23)cc1C(=O)NC(C)C` (some centres unmarked) [Example 49] fall in the same range of Dmax: 45 to 65% for the first, 45 to 65% for the second.

`Cc1cc(F)c(Nc2nc(-c3ccc4c(c3)N([C@H]3C[C@@H](N5CCCCC5)C3)C(=O)C43CCN(C(=O)C4CCN(C(=O)CN5CC6(CCN(c7ccc8c(c7)C(=O)N(C7CCC(=O)NC7=O)C8=O)CC6)C5)CC4)CC3)cc3ncn(C(C)C)c23)cc1C(=O)NC(C)C` (some centres unmarked) [Example 42, 5-{[6-(1′-{1-[2-(7-{2-[2,6-dioxopiperidin-3-yl]-1,3-dioxo-2,3-dihydro-1H-isoindol-5-yl}-2,7-diazaspiro[3.5]nonan-2-yl)acetyl]piperidine-4-carbonyl}-2-oxo-1-[(1s,3s)-3-(piperidin-1-yl)cyclobutyl]-1,2-dihydrospiro[indole-3,4′-piperidin]-6-yl)-3-(propan-2-yl)-3H-imidazo[4,5-c]pyridin-4-yl]amino}-4-fluoro-2-methyl-N-(propan-2-yl)benzamide] and `Cc1cc(F)c(Nc2nc(-c3ccc4c(c3)N([C@H]3C[C@@H](N5CCCCC5)C3)C(=O)C43CCN(C(=O)[C@H]4CC[C@@H](C(=O)N5CCN(c6ccc7c(c6)C(=O)N(C6CCC(=O)NC6=O)C7=O)CC5)CC4)CC3)cc3ncn(C(C)C)c23)cc1C(=O)NC(C)C` (stereo partly drawn) [Example 79, 5-((6-(1′-((1s,4S)-4-(4-(2-(2,6-dioxopiperidin-3-yl)-1,3-dioxoisoindolin-5-yl)piperazine-1-carbonyl)cyclohexane-1-carbonyl)-2-oxo-1-((1s,3s)-3-(piperidin-1-yl)cyclobutyl)spiro[indoline-3,4′-piperidin]-6-yl)-3-isopropyl-3H-imidazo[4,5-c]pyridin-4-yl)amino)-4-fluoro-N-isopropyl-2-methylbenzamide] fall in the same range of Dmax: 45 to 65% for the first, 45 to 65% for the second.

First: CC(=O)N1CCC2(CC1)C(=O)N([C@H]1C[C@@H](N3CCC[C@@H](C(=O)NCCCCCCCOc4cc(-c5scnc5C)ccc4CNC(=O)[C@@H]4C[C@@H](O)CN4C(=O)[C@@H](NC(=O)C4(F)CC4)C(C)(C)C)C3)C1)c1cc(-c3cc4ncn(C(C)C)c4c(Nc4cc(C(=O)NC(C)C)c(C)cc4F)n3)ccc12 [Example 16, (R)-1-((1s,3s)-3-(1′-acetyl-6-(4-((2-fluoro-5-(isopropylcarbamoyl)-4-methylphenyl)amino)-3-isopropyl-3H-imidazo[4,5-c]pyridin-6-yl)-2-oxospiro[indoline-3,4′-piperidin]-1-yl)cyclobutyl)-N-(7-(2-(((2S,4R)-1-((S)-2-(1-fluorocyclopropane-1-carboxamido)-3,3-dimethylbutanoyl)-4-hydroxypyrrolidine-2-carboxamido)methyl)-5-(4-methylthiazol-5-yl)phenoxy)heptyl)piperidine-3-carboxamide]
Second: Cc1cc(F)c(Nc2nc(-c3ccc4c(c3)N([C@H]3C[C@@H](N5CCCCC5)C3)C(=O)C43CCN(C(=O)CCOCCOCCOCCOCCNc4cccc5c4C(=O)N(C4CCC(=O)NC4=O)C5=O)CC3)cc3ncn(C(C)C)c23)cc1C(=O)NC(C)C (some centres unmarked) [Example 2, 5-((6-(1′-(1-((2-(2,6-dioxopiperidin-3-yl)-1,3-dioxoisoindolin-4-yl)amino)-3,6,9,12-tetraoxapentadecan-15-oyl)-2-oxo-1-((1s,3s)-3-(piperidin-1-yl)cyclobutyl)spiro[indoline-3,4′-piperidin]-6-yl)-3-isopropyl-3H-imidazo[4,5-c]pyridin-4-yl)amino)-4-fluoro-N-isopropyl-2-methylbenzamide]
The Dmax of the first is lower: < 45% for the first, 45 to 65% for the second.

With `Cc1cc(F)c(Nc2nc(-c3ccc4c(c3)N([C@H]3C[C@@H](N5CCCCC5)C3)C(=O)C43CCN(C(=O)CC4CCCN(CC5CCN(c6cccc7c6C(=O)N(C6CCC(=O)NC6=O)C7=O)C5)C4)CC3)cc3ncn(C(C)C)c23)cc1C(=O)NC(C)C` (stereo partly drawn) [Example 31, 5-{[6-(1′-{2-[(3S)-1-{[1-{2-[2,6-dioxopiperidin-3-yl]-1,3-dioxo-2,3-dihydro-1H-isoindol-4-yl}pyrrolidin-3-yl]methyl}piperidin-3-yl]acetyl}-2-oxo-1-[(1s,3s)-3-(piperidin-1-yl)cyclobutyl]-1,2-dihydrospiro[indole-3,4′-piperidin]-6-yl)-3-(propan-2-yl)-3H-imidazo[4,5-c]pyridin-4-yl]amino}-4-fluoro-2-methyl-N-(propan-2-yl)benzamide] the Dmax was > 65%.
